Laboratory results reported in patent publication US20250230147A1, “LACTAMS AS CBL-B INHIBITORS” (Genentech, Inc., priority 2021, published 2025).
Structures can show the parent of a compound that is named as a salt.

Legend:
c-Cbl = c-Cbl (Homo sapiens (Human), UniProt P22681); experiment: C-Cbl LCK Ub TR-FRET assay (c-cbl Lck HTRF); assay type: biochemical; details: for (fold-selectivity): C-cbl Lck HTRF IC50 relative to Cbl-b Lck HTRF IC50
Summary of the method: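 Signal is read once the detection mix has stood 20 min at ambient temperature. Curves are anchored by DMSO as maximum and by omission of LCK as minimum.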

[1] = In vivo pharmacokinetics, mouse; design: species or system CD-1 mice; details: male, CD-1, plasma; for bioavailability: PO 1-5 mg/kg, read-out: Oral Bioavailability (F %); for clearance: single intravenous bolus 0.2-1 mg/kg, read-out: Mouse CL
Description: The pharmacokinetics of test compounds were evaluated following a single intravenous bolus (IV) of solution at a dose of 0.2-1 mg/kg and oral administration (PO) of solution/suspension at doses of 1-5 mg/kg in male cynomolgus monkey, beagle dogs, Sprague Dawley rats, or CD-1 mice using a parallel study design. Blood samples for the IV dose group were collected prior to administration (predose) and at 0.033, 0.083, 0.25, 0.5, 1, 3, 6, 9 and 24 hours post dose. Blood samples for PO dose groups were collected prior to administration (predose) and at 0.083, 0.25, 0.5, 1, 3, 6, 9 and 24 hours post dose. For the IV group, urine was collected from each animal at predose and from 0-6 and 6-24 hours post dose. The vehicle used for IV dose groups was a combination of PEG400 with citrate buffer (pH 5.0) or PEG400/Cremphor with DMSO/H2O, and for PO groups was MCT.
Plasma and urine concentrations were quantitated at Genentech Inc. using a non-validated LC/MS/MS method. The lower limit of quantitation (LLOQ) of the plasma and urine assays was 0.005 μM. PK parameters were determined by non-compartmental methods using WinNonlin (version 5.2, Pharsight Corporation, Mountain View, CA).

Cbl-b = Cbl-b (Homo sapiens (Human), UniProt Q13191); experiment: Cbl-b LCK Ub TR-FRET assay (Cbl-b Lck HTRF); assay type: biochemical
Cbl-b, sequence (Q13191 40-426): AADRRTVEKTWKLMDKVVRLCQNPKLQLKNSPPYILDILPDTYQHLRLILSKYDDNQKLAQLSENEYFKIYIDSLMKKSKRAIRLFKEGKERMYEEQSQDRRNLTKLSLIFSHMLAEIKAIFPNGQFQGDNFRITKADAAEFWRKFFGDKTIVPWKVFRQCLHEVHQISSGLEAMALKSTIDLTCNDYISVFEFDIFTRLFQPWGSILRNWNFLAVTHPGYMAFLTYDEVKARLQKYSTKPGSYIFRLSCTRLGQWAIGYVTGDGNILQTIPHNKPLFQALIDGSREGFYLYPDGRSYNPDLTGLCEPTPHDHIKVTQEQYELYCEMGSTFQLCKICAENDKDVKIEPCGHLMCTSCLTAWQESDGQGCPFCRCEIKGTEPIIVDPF
Summary of the method: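 TR-FRET (340 nm excitation, 615/665 nm emission) read after adding HA-ubiquitin–UBE2D2 thioester, anti-HA-D2 and streptavidin-Eu. Beforehand, compounds incubated 60 min with biotinylated Cbl-b, then 90 min with His-LCK and ATP (1 mM in 2× mix); IC50 from 10 concentrations, DMSO high and no-LCK low controls.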

c-Cbl, sequence (P22681 47-435): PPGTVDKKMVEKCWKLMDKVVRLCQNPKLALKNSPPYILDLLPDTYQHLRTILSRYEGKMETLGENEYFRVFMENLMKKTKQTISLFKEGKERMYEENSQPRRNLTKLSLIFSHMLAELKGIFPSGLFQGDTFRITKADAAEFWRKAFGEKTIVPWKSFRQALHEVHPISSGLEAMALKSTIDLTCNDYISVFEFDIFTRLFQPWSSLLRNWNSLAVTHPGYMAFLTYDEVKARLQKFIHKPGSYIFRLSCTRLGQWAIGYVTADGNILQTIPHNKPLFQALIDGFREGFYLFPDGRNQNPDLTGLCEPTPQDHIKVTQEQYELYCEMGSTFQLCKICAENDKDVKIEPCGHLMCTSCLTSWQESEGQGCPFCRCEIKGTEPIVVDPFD

CC(C)[C@H]1CN(C)CCN1Cc1cc2c(c(C(F)(F)F)c1)CN(c1cccc(C3([C@@H](F)c4nncn4C)COC3)c1)C2=O [Compound 187, 2-(3-(3-((R)-fluoro(4-methyl-4H-1,2,4-triazol-3-yl)methyl)oxetan-3-yl)phenyl)-6-(((S)-2-isopropyl-4-methylpiperazin-1-yl)methyl)-4-(trifluoromethyl)isoindolin-1-one]
IC50 (c-Cbl): 13 nM | (fold-selectivity) (c-Cbl): 1.1x | bioavailability [1]: 13% | clearance [1]: 42 mL/min/kg | IC50 (Cbl-b): 11 nM

CC(C)[C@H]1CN(C)CCN1Cc1cc2c(c(C(F)(F)F)c1)CN(c1cccc(C3([C@@H](F)c4nncn4C)CC(F)(F)C3)c1)C2=O [Compound 189, 2-(3-(3,3-difluoro-1-((R)-fluoro(4-methyl-4H-1,2,4-triazol-3-yl)methyl)cyclobutyl)phenyl)-6-(((S)-2-isopropyl-4-methylpiperazin-1-yl)methyl)-4-(trifluoromethyl)isoindolin-1-one]
IC50 (c-Cbl): 11 nM | (fold-selectivity) (c-Cbl): 0.95x | bioavailability [1]: 21% | clearance [1]: 34 mL/min/kg | IC50 (Cbl-b): 12 nM

Cn1cnnc1[C@H](F)C1(c2cccc(N3Cc4c(cc(CN5CCC5)cc4C(F)(F)F)C3=O)c2)COC1 [Compound 70, (R)-6-(azetidin-1-ylmethyl)-2-(3-(3-(fluoro(4-methyl-4H-1,2,4-triazol-3-yl)methyl)oxetan-3-yl)phenyl)-4-(trifluoromethyl)isoindolin-1-one]
IC50 (c-Cbl): 210 nM | (fold-selectivity) (c-Cbl): 1.9x | bioavailability [1]: 2% | clearance [1]: 44 mL/min/kg | IC50 (Cbl-b): 110 nM

C[C@@H]1COCCN1c1cc(C2(Cc3nncn3C)COC2)cc(N2Cc3c(cccc3C(F)(F)F)C2=O)n1 [Compound 490, (R)-2-(4-(3-((4-methyl-4H-1,2,4-triazol-3-yl)methyl)oxetan-3-yl)-6-(3-methylmorpholino)pyridin-2-yl)-4-(trifluoromethyl)isoindolin-1-one]
IC50 (c-Cbl): 3500 nM | (fold-selectivity) (c-Cbl): (1.0x) | IC50 (Cbl-b): 3300 nM

Cn1cnnc1CC1(c2cccc(N3Cc4c(cc(C5CCN5)cc4C(F)(F)F)C3=O)c2)COC1 (stereo not drawn) [Compound 13, 6-(azetidin-2-yl)-2-(3-(3-((4-methyl-4H-1,2,4-triazol-3-yl)methyl)oxetan-3-yl)phenyl)-4-(trifluoromethyl)isoindolin-1-one formate]
IC50 (c-Cbl): 540 nM | IC50 (Cbl-b): 320 nM

CCCC1(O)CN(Cc2cc3c(c(C(F)(F)F)c2)CN(c2cccc(C4([C@@H](F)c5nncn5C)COC4)c2)C3=O)C1 [Compound 171, (R)-2-(3-(3-(fluoro(4-methyl-4H-1,2,4-triazol-3-yl)methyl)oxetan-3-yl)phenyl)-6-((3-hydroxy-3-propylazetidin-1-yl)methyl)-4-(trifluoromethyl)isoindolin-1-one]
IC50 (c-Cbl): 82 nM | (fold-selectivity) (c-Cbl): 1.7x | IC50 (Cbl-b): 49 nM

CN(C)Cc1cccc(CNc2cc(C3(Cc4nncn4C)CCC3)cc(N3Cc4c(cc(CNC5(C)CCC5)cc4C(F)(F)F)C3=O)n2)c1 [Compound 318, 2-(6-((3-((dimethylamino)methyl)benzyl)amino)-4-(1-((4-methyl-4H-1,2,4-triazol-3-yl)methyl)cyclobutyl)pyridin-2-yl)-6-(((1-methylcyclobutyl)amino)methyl)-4-(trifluoromethyl)isoindolin-1-one]
IC50 (c-Cbl): 140 nM | (fold-selectivity) (c-Cbl): (1.1x) | IC50 (Cbl-b): 130 nM

CC(C)[C@H]1CN(CC(F)(F)F)CCN1Cc1cc2c(c(C(F)(F)F)c1)CN(c1cccc(C3([C@H](F)c4nncn4C)COC3)c1)C2=O [Compound 201, 2-(3-(3-((S)-fluoro(4-methyl-4H-1,2,4-triazol-3-yl)methyl)oxetan-3-yl)phenyl)-6-(((S)-2-isopropyl-4-(2,2,2-trifluoroethyl)piperazin-1-yl)methyl)-4-(trifluoromethyl)isoindolin-1-one]
IC50 (c-Cbl): 3000 nM | (fold-selectivity) (c-Cbl): 13 x | IC50 (Cbl-b): 220 nM | fold of selectivity (Cbl-b; Cbl-b over c-Cbl, Lck HTRF IC50): 13.6x

COC[C@@H]1CCCN1Cc1cc2c(c(C(F)(F)F)c1)CN(c1cccc(C3([C@@H](F)c4nncn4C)COC3)c1)C2=O [Compound 159, 2-(3-(3-((R)-fluoro(4-methyl-4H-1,2,4-triazol-3-yl)methyl)oxetan-3-yl)phenyl)-6-(((S)-2-(methoxymethyl)pyrrolidin-1-yl)methyl)-4-(trifluoromethyl)isoindolin-1-one]
IC50 (c-Cbl): 1200 nM | (fold-selectivity) (c-Cbl): 3.4x | IC50 (Cbl-b): 350 nM

Cn1cnnc1CC1(c2cc(NCC3CCOCC3)nc(N3Cc4c(cc(CNC5(C)CCC5)cc4C(F)(F)F)C3=O)c2)CCC1 [Compound 335, 2-(4-(1-((4-methyl-4H-1,2,4-triazol-3-yl)methyl)cyclobutyl)-6-(((tetrahydro-2H-pyran-4-yl)methyl)amino)pyridin-2-yl)-6-(((1-methylcyclobutyl)amino)methyl)-4-(trifluoromethyl)isoindolin-1-one]
IC50 (c-Cbl): 190 nM | (fold-selectivity) (c-Cbl): (1.0x) | IC50 (Cbl-b): 180 nM

Cn1cnnc1CC1(c2cc(Cc3ccccc3)nc(N3Cc4c(cc(CNC5(C)CCC5)cc4C(F)(F)F)C3=O)c2)CCC1 [Compound 241, 2-(6-benzyl-4-(1-((4-methyl-4H-1,2,4-triazol-3-yl)methyl)cyclo-butyl)pyridin-2-yl)-6-(((1-methylcyclobutyl)amino)methyl)-4-(trifluoromethyl)isoindolin-1-one]
IC50 (c-Cbl): 16 nM | (fold-selectivity) (c-Cbl): (0.77x) | IC50 (Cbl-b): 21 nM

CCOc1cc(C2(Cc3nncn3C)COC2)cc(N2Cc3c(cc(CNC4(C)CCC4)cc3C(F)(F)F)C2=O)n1 [Compound 304, 2-(6-ethoxy-4-(3-((4-methyl-4H-1,2,4-triazol-3-yl)methyl)oxetan-3-yl)pyridin-2-yl)-6-(((1-methylcyclobutyl)amino)methyl)-4-(trifluoromethyl)isoindolin-1-one]
IC50 (c-Cbl): 7.9 nM | (fold-selectivity) (c-Cbl): (0.73x) | IC50 (Cbl-b): 11 nM

Cn1cnnc1CC1(c2cc(NCCN3CCCC3=O)nc(N3Cc4c(cc(CNC5(C)CCC5)cc4C(F)(F)F)C3=O)c2)CCC1 [Compound 338, 2-(4-(1-((4-methyl-4H-1,2,4-triazol-3-yl)methyl)cyclobutyl)-6-((2-(2-oxopyrrolidin-1-yl)ethyl)amino)pyridin-2-yl)-6-(((1-methylcyclobutyl)amino)methyl)-4-(trifluoromethyl)isoindolin-1-one]
IC50 (c-Cbl): 140 nM | (fold-selectivity) (c-Cbl): (1.1x) | IC50 (Cbl-b): 130 nM

Cn1cnnc1CC1(c2cc(NC3CCCC3)nc(N3Cc4c(cc(CNC5(C)CCC5)cc4C(F)(F)F)C3=O)c2)CCC1 [Compound 295, 2-(6-(cyclopentylamino)-4-(1-((4-methyl-4H-1,2,4-triazol-3-yl)methyl)cyclobutyl)pyridin-2-yl)-6-(((1-methylcyclobutyl)amino)methyl)-4-(trifluoromethyl)isoindolin-1-one]
IC50 (c-Cbl): 33 nM | (fold-selectivity) (c-Cbl): (0.75x) | IC50 (Cbl-b): 44 nM

CC(C)[C@H]1CN(S(C)(=O)=O)CCN1Cc1cc2c(c(C(F)(F)F)c1)CN(c1cccc(C3([C@@H](F)c4nncn4C)COC3)c1)C2=O [Compound 195, 2-(3-(3-((R)-fluoro(4-methyl-4H-1,2,4-triazol-3-yl)methyl)oxetan-3-yl)phenyl)-6-(((S)-2-isopropyl-4-(methylsulfonyl)piperazin-1-yl)methyl)-4-(trifluoromethyl)isoindolin-1-one]
IC50 (c-Cbl): 110 nM | (fold-selectivity) (c-Cbl): 2.0x | IC50 (Cbl-b): 53 nM
